Reference: publication PMC13266999, “Designing Antibiotics with Inherent Resistance to Efflux as a Strategy to Revive Discovery against Multidrug-Resistant Pathogens” (Journal of Medicinal Chemistry, 2026)
In brackets after ≈: the same amount, converted by molar mass.

Tests used:
[1] = tested on: S. aureus; assay: MIC (microbroth dilution); assay type: cell-based, Staphylococcus aureus; settings: for MIC: Staphylococcus aureus
Outline: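 Broth microdilution MICs, defined as lowest compound level without visible growth (OD600 read), on bacteria grown overnight to stationary phase then diluted. Twofold compound dilutions; some wells also received PMBN, final 30 μg/mL, to permeabilize the outer membrane.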

[2] = molecular target: T1, GyrA S84L mutant DNA gyrase (Staphylococcus aureus, UniProt P0A0K8+P20831, S84L); assay: DNA gyrase supercoiling inhibition assay; assay type: biochemical, S. aureus
T1 construct: purchased Inspiralis Ltd. (Norwich, UK)
Experimental: (§1) Gyrase inhibition was determined through biochemical assay kits from Inspiralis Ltd. (Norwich, UK), according to manufacturer’s instructions, and as described previously. Briefly, 1U of enzyme was incubated with 0.5 μg of relaxed […] DNA in the presence of compound in 1% DMSO for 30 min at 37 °C. A control reaction contained no compound but still contained 1% DMSO. The reactions were stopped through Stop Buffer addition and the DNA separated through addition of chloroform/iso-amyl alcohol (24;1). Samples were run on a 1% agarose gel at 75 V for 2 h, which was then stained with 1 μg/mL ethidium bromide and visualized using a NuGenius gel imager (Syngene). The intensity of the supercoiled DNA band was quantified using Syngene software, and the inhibition of the supercoiling of the DNA by the compounds was calculated.

[3] = molecular target: T2, WT DNA gyrase (Staphylococcus aureus, UniProt P0A0K8+P20831); assay: DNA gyrase supercoiling inhibition assay; assay type: biochemical, S. aureus
T2 construct: purchased Inspiralis Ltd. (Norwich, UK)
Experimental: as §1

[4] = tested on: S. aureus; assay: Serial passaging, MIC of adapted strains; assay type: cell-based; settings: Staphylococcus aureus
Experimental: MICs were performed on the first and 10th passage.

Cc1cc(C)nc(N[C@@H]2CCN(c3c(F)cc4c(=O)c(C(=O)O)cn5c4c3OC[C@@H]5C)C2)n1 [Compound 50, (S)-10-((R)-3-((4,6-Dimethylpyrimidin-2-yl)amino)pyrrolidin-1-yl)-9-fluoro-3-methyl-7-oxo-2,3-dihydro-7H-[1,4]oxazino[2,3,4-ij]quinoline-6-carboxylic acid]
MIC ([1]; MRSA / NRS 387 / USA800, USA800 MRSA (NRS387), read-out: MIC): 0.03 µg/mL (≈ 0.0662 µM)
MIC ([1]; MRSA / NRS 402 / VISA, VISA DAP-NS MRSA (NRS402), read-out: MIC): 1 µg/mL (≈ 2.21 µM)
MIC ([1]; MRSA / NRS 483, USA1000 MRSA (NRS483), read-out: MIC): 0.03 µg/mL (≈ 0.0662 µM)
MIC ([1]; MRSA / NRS 484, USA1100 MRSA (NRS484), read-out: MIC): 0.03 µg/mL (≈ 0.0662 µM)
MIC ([1]; MRSA / USA300, USA300 MRSA (FPR3757), read-out: MIC): 0.5 µg/mL (≈ 1.1 µM)
MIC ([1]; MRSA / USA300, USA300 MRSA (TCH1516), read-out: MIC): 0.03 µg/mL (≈ 0.0662 µM)
MIC ([1]; MRSA / USA400, USA400 MRSA (MW2), read-out: MIC): 0.03 µg/mL (≈ 0.0662 µM)
MIC ([1]; MRSA / VISA, MRSA VISA (CDC #0219), read-out: MIC): 4 µg/mL (≈ 8.82 µM)
MIC ([1]; MRSA / VISA, MRSA VISA (CDC #0220), read-out: MIC): 1 µg/mL (≈ 2.21 µM)
MIC ([1]; MRSA / VISA, MRSA VISA (CDC #0221), read-out: MIC): 0.5 µg/mL (≈ 1.1 µM)
MIC ([1]; MRSA / VISA, MRSA VISA (CDC #0223), read-out: MIC): 1 µg/mL (≈ 2.21 µM)
MIC ([1]; MRSA / VISA, MRSA VISA (CDC #0225), read-out: MIC): 1 µg/mL (≈ 2.21 µM)
MIC ([1]; MRSA / VISA, MRSA VISA (CDC #0226), read-out: MIC): 0.03 µg/mL (≈ 0.0662 µM)
MIC ([1]; MRSA / VISA, MRSA VISA (CDC #0227), read-out: MIC): 1 µg/mL (≈ 2.21 µM)
MIC ([1]; MRSA / VISA, MRSA VISA (CDC AR-BANK #0215), read-out: MIC): 16 µg/mL (≈ 35.3 µM)
MIC ([1]; MRSA / VISA, MRSA VISA (CDC AR-BANK #0216), read-out: MIC): 0.5 µg/mL (≈ 1.1 µM)
MIC ([1]; MRSA / VISA, MRSA VISA (CDC AR-BANK #0217), read-out: MIC): 1 µg/mL (≈ 2.21 µM)
MIC ([1]; MRSA / VISA, MRSA VISA (Mu50), read-out: MIC): 2 µg/mL (≈ 4.41 µM)
MIC ([1]; MRSA / VISA, MRSA VISA Mupirocin-R (CDC #0218), read-out: MIC): 1 µg/mL (≈ 2.21 µM)
MIC ([1]; MRSA, MRSA DAP-NS (ECL 2963621), read-out: MIC): 0.25 µg/mL (≈ 0.551 µM)
MIC ([1]; MRSA, VanA MRSA (VRS1), read-out: MIC): 1 µg/mL (≈ 2.21 µM)
MIC ([1]; MRSA, VanA MRSA (VRS2), read-out: MIC): 0.5 µg/mL (≈ 1.1 µM)
MIC ([1]; MRSA, VanA MRSA (VRS3a), read-out: MIC): 0.5 µg/mL (≈ 1.1 µM)
MIC ([1]; MSSA / VISA, MSSA VISA (CDC #0222), read-out: MIC): 0.03 µg/mL (≈ 0.0662 µM)
MIC ([1]; NCTC13277, NCTC 13277, + 4% albumin, read-out: MIC): 4 µg/mL
MIC ([1]; NCTC13616, NCTC 13616, + 4% albumin, read-out: MIC): 2 µg/mL
MIC ([1]; NRS 3 / VISA, VISA (NRS3), read-out: MIC): 0.5 µg/mL (≈ 1.1 µM)
MIC ([1]; NRS 12 / VISA, VISA (NRS12), read-out: MIC): 0.06 µg/mL (≈ 0.132 µM)
MIC ([1]; NRS 56 / VISA, VISA (NRS56), read-out: MIC): 1 µg/mL (≈ 2.21 µM)
MIC ([1]; NRS72, Sanger-476, NRS72, read-out: MIC): 0.03 µg/mL (≈ 0.0662 µM)
MIC ([1]; NRS157, NRS157, read-out: MIC): 0.03 µg/mL (≈ 0.0662 µM)
MIC ([1]; SA-1199, read-out: MIC): 0.016 µg/mL (≈ 0.0353 µM)
MIC ([1]; SA-1199B (NorA-overexpressing)): 0.016 µg/mL (≈ 0.0353 µM)
MIC ([1]; VRSA, VRSA (ECL 2963646), read-out: MIC): 0.5 µg/mL (≈ 1.1 µM)
MIC ([1]; VanA (VRS11b), read-out: MIC): 2 µg/mL (≈ 4.41 µM)
MIC ([1]; majority of MSSA and MRSA isolates, read-out: MIC): ≤ 0.0312 µg/mL
fold increase in MIC in the presence of 4% albumin ([1]; across the strain panel): 2- to 8 fold
IC50 [2]: 8.38 µM
IC50 [3]: 5.56 µM
MIC ([4]; 1199B WT): 0.03 µg/mL
MIC ([4]; 1199B adapted to 4 x MIC of Compound 7): ≤ 0.015 µg/mL
MIC ([4]; 1199B adapted to 4 x MIC of Compound 46): 0.125 µg/mL
MIC ([4]; 1199B adapted to 4 x MIC of Compound 50): 0.25 µg/mL
MIC ([4]; 1199B adapted to 4 x MIC of Compound 51): 0.03 µg/mL
MIC ([4]; 1199 WT): 0.015 µg/mL
MIC ([4]; 1199 adapted to 4 x MIC of Compound 7): 0.03 µg/mL
MIC ([4]; 1199 adapted to 4 x MIC of Compound 46): ≤ 0.015 µg/mL
MIC ([4]; 1199 adapted to 4 x MIC of Compound 50): 0.125 µg/mL
MIC ([4]; 1199 adapted to 4 x MIC of Compound 51): ≤ 0.015 µg/mL
MIC ([4]; NCTC13616, NCTC 13616 WT): 0.125 µg/mL
MIC ([4]; NCTC13616, NCTC 13616 adapted to 4 x MIC of Compound 7): 0.5 µg/mL
MIC ([4]; NCTC13616, NCTC 13616 adapted to 4 x MIC of Compound 46): 0.25 µg/mL
MIC ([4]; NCTC13616, NCTC 13616 adapted to 4 x MIC of Compound 50): 0.5 µg/mL
MIC ([4]; NCTC13616, NCTC 13616 adapted to 4 x MIC of Compound 51): 1 µg/mL
